The source of these data is ChEMBL document CHEMBL2413023, “Antiparasitic hybrids of Cinchona alkaloids and bile acids” (Eur J Med Chem, 2013).

Data set [1] deals with Leishmania mexicana mexicana. Nature of the data set: Antileishmanial activity against Leishmania mexicana mexicana MHOM/BZ/84/BEL46 promastigotes assessed as parasite LDH activity by three-fold serial dilution method. It is filed as functional, organism-based.
A short description of data set [2]: Selectivity index, ratio of IC50 for human WI38 cells to IC50 for erythrocytic stage of chloroquine-sensitive Plasmodium falciparum 3D7. In kind it is toxicity, cell-based, WI-38. To be noted: read-out: Ratio IC50.
The subject of data set [3] is Trypanosoma brucei brucei. Nature of the data set: Antitrypanosomal activity against Trypanosoma brucei brucei Lister 427 bloodstream form assessed as parasite LDH activity by three-fold serial dilution method. It is filed as functional, organism-based.
A short description of data set [4]: Selectivity index, ratio of IC50 for human WI38 cells to IC50 for Leishmania mexicana mexicana MHOM/BZ/84/BEL46 promastigotes. It is filed as toxicity, cell-based, WI-38. To be noted: read-out: Ratio IC50.
The test system of data set [5] is Plasmodium falciparum. The data set is described as follows: Antiplasmodial activity against erythrocytic stage of chloroquine-sensitive Plasmodium falciparum 3D7 assessed as parasite LDH activity by three-fold serial dilution method. In kind it is functional, organism-based.
Data set [6] in a line: in vitro. To be noted: human, WI38 cells.
Description: Selectivity index, ratio of IC50 for human WI38 cells to IC50 for Trypanosoma brucei brucei Lister 427 bloodstream form
Data set [7] deals with WI-38. The data set is described as follows: Cytotoxicity against human WI38 cells by MTT assay. In kind it is cell-based.

≈ marks a conversion by molar mass, not a printed value.

For `C=C[C@H]1CN2CC[C@H]1C[C@H]2[C@@H](O)c1cc(CC[C@@H](C)[C@H]2CC[C@H]3[C@@H]4CC[C@@H]5C[C@H](O)CC[C@]5(C)[C@H]4CC[C@]23C)nc2ccccc12`, the concentration for half-maximal inhibition (IC50) in data set [1] was 4.08 µg/mL (≈ 6.53 µM); in data set [3], 3.01 µg/mL (≈ 4.82 µM); in data set [5] it was 0.86 µg/mL (≈ 1.38 µM); in data set [7] it was 3.97 µg/mL (≈ 6.35 µM). In addition, the selectivity ratio amounted to 4.6 in data set [2], 0.97 in data set [4] and 1.3 in data set [6].
Regarding `C=C[C@H]1CN2CC[C@H]1C[C@H]2[C@H](O)c1ccnc2ccccc12` [CINCHONIDINE], the IC50 in data set [1] was 5.74 µg/mL (≈ 19.5 µM); in data set [3], 18.3 µg/mL (≈ 62.1 µM); in data set [5] it was 0.28 µg/mL (≈ 0.951 µM); in data set [7], > 20 µg/mL. In addition, the selectivity ratio in data set [2] is > 71; in data set [4], 0.96.
With `C=C[C@H]1CN2CC[C@H]1C[C@H]2[C@@H](O)c1cc(CC[C@@H](C)[C@H]2CC[C@H]3[C@@H]4[C@H](OC(C)=O)C[C@@H]5C[C@H](OC(C)=O)CC[C@]5(C)[C@H]4CC[C@]23C)nc2ccc(OC)cc12`, the IC50 in data set [1] came to 4.15 µg/mL (≈ 5.5 µM); in data set [3], 0.44 µg/mL (≈ 0.583 µM); in data set [5], 0.38 µg/mL (≈ 0.503 µM); in data set [7], 3.1 µg/mL (≈ 4.11 µM). Moreover, the selectivity ratio in data set [2] amounted to 8.1; in data set [4], 0.75; in data set [6], 7.1.
In the case of `C=C[C@H]1CN2CC[C@H]1C[C@H]2[C@H](O)c1cc(CC[C@@H](C)[C@H]2CC[C@H]3[C@@H]4[C@H](O)C[C@@H]5C[C@H](O)CC[C@]5(C)[C@H]4CC[C@]23C)nc2ccccc12`, the concentration for half-maximal inhibition (IC50) in data set [1] was determined as 3.45 µg/mL (≈ 5.38 µM); in data set [3], 0.4 µg/mL (≈ 0.624 µM); in data set [5], 0.23 µg/mL (≈ 0.359 µM); in data set [7], 1.71 µg/mL (≈ 2.67 µM). The selectivity ratio is 7.5 in data set [2], 0.5 in data set [4] and 4.3 in data set [6].
As for `C=C[C@H]1CN2CC[C@H]1C[C@H]2[C@@H](O)c1cc(CC[C@@H](C)[C@H]2CC[C@H]3[C@@H]4CC[C@@H]5C[C@H](O)CC[C@]5(C)[C@H]4CC[C@]23C)nc2ccc(OC)cc12`, the IC50 in data set [1] was 4.05 µg/mL (≈ 6.18 µM); in data set [3], 0.79 µg/mL (≈ 1.21 µM); in data set [5], 0.68 µg/mL (≈ 1.04 µM); in data set [7], 2.59 µg/mL (≈ 3.95 µM). Moreover, the selectivity ratio in data set [2] was determined as 3.8; in data set [4], 0.64; in data set [6], 3.3.
For `C=C[C@H]1CN2CC[C@H]1C[C@H]2[C@@H](O)c1cc(CC[C@@H](C)[C@H]2CC[C@H]3[C@@H]4CC[C@@H]5C[C@H](OC(C)=O)CC[C@]5(C)[C@H]4CC[C@]23C)nc2ccc(OC)cc12`, the IC50 in data set [1] is 13.7 µg/mL (≈ 19.6 µM); in data set [3], 2.97 µg/mL (≈ 4.26 µM); in data set [5], 0.81 µg/mL (≈ 1.16 µM); in data set [7], 7.79 µg/mL (≈ 11.2 µM). Moreover, the selectivity ratio is 9.7 in data set [2], 0.57 in data set [4] and 2.6 in data set [6].
`C=C[C@H]1CN2CC[C@H]1C[C@H]2[C@H](O)c1ccnc2ccc(OC)cc12` [QUININE]: the half-maximal inhibitory concentration (IC50) in data set [1] is > 20 µg/mL; in data set [3], 6.87 µg/mL (≈ 21.2 µM); in data set [5] it was 0.2 µg/mL (≈ 0.616 µM); in data set [7], 6.56 µg/mL (≈ 20.2 µM). Also, the selectivity ratio in data set [2] was 32; in data set [6] it was 1.
On to `C=C[C@H]1CN2CC[C@H]1C[C@H]2[C@@H](O)c1cc(CC[C@@H](C)[C@H]2CC[C@H]3[C@@H]4[C@H](OC(C)=O)C[C@@H]5C[C@H](OC(C)=O)CC[C@]5(C)[C@H]4CC[C@]23C)nc2ccccc12`, for which the IC50 was 4.11 µg/mL (≈ 5.67 µM) in data set [1], 0.43 µg/mL (≈ 0.593 µM) in data set [3], 0.19 µg/mL (≈ 0.262 µM) in data set [5] and 1.93 µg/mL (≈ 2.66 µM) in data set [7]. Further, the selectivity ratio in data set [2] is 10.2; in data set [4], 0.47; in data set [6], 4.5.
Turning to `C=C[C@H]1CN2CC[C@H]1C[C@H]2[C@@H](O)c1cc(CC[C@@H](C)[C@H]2CC[C@H]3[C@@H]4[C@H](O)C[C@@H]5C[C@H](O)CC[C@]5(C)[C@H]4CC[C@]23C)nc2ccc(OC)cc12`, the concentration for half-maximal inhibition (IC50) in data set [1] amounted to 3.86 µg/mL (≈ 5.75 µM); in data set [3], 0.37 µg/mL (≈ 0.551 µM); in data set [5] it was 0.14 µg/mL (≈ 0.209 µM); in data set [7] it was 1.95 µg/mL (≈ 2.91 µM). Further, the selectivity ratio in data set [2] is 14; in data set [4] it was 0.51; in data set [6] it was 5.3.
Consider `C=C[C@H]1CN2CC[C@H]1C[C@H]2[C@H](O)c1cc(CC[C@@H](C)[C@H]2CC[C@H]3[C@@H]4[C@H](OC(C)=O)C[C@@H]5C[C@H](OC(C)=O)CC[C@]5(C)[C@H]4CC[C@]23C)nc2ccccc12`, for which the IC50 in data set [1] was 3.91 µg/mL (≈ 5.39 µM); in data set [3] it was 0.41 µg/mL (≈ 0.565 µM); in data set [5], 0.21 µg/mL (≈ 0.29 µM); in data set [7], 1.77 µg/mL (≈ 2.44 µM). In addition, the selectivity ratio in data set [2] stood at 8.4; in data set [4], 0.45; in data set [6], 4.3.
With `C=C[C@H]1CN2CC[C@H]1C[C@H]2[C@@H](O)c1cc(CC[C@@H](C)[C@H]2CC[C@H]3[C@@H]4[C@H](O)C[C@@H]5C[C@H](O)CC[C@]5(C)[C@H]4CC[C@]23C)nc2ccccc12`, the IC50 in data set [1] was found to be 3.39 µg/mL (≈ 5.29 µM); in data set [3] it was 0.39 µg/mL (≈ 0.608 µM); in data set [5], 0.09 µg/mL (≈ 0.14 µM); in data set [7], 1.42 µg/mL (≈ 2.22 µM). For the same compound, the selectivity ratio in data set [2] worked out at 15.7; in data set [4], 0.42; in data set [6], 3.6.
Take `C=C[C@H]1CN2CC[C@H]1C[C@H]2[C@@H](O)c1cc(CC[C@@H](C)[C@H]2CC[C@H]3[C@@H]4CC[C@@H]5C[C@H](OC(C)=O)CC[C@]5(C)[C@H]4CC[C@]23C)nc2ccccc12`: the IC50 is 12.1 µg/mL (≈ 18.1 µM) in data set [1], 1.26 µg/mL (≈ 1.89 µM) in data set [3], 2.26 µg/mL (≈ 3.39 µM) in data set [5] and 7.02 µg/mL (≈ 10.5 µM) in data set [7]. The selectivity ratio in data set [2] was 3.1; in data set [4], 0.58; in data set [6] it was 5.6.
The compound `CC[C@@]1(O)C(=O)OCc2c1cc1n(c2=O)Cc2cc3ccccc3nc2-1` [CAMPTOTHECIN] registered a concentration for half-maximal inhibition (IC50) in data set [7] of 0.4 µg/mL (≈ 1.15 µM).
Regarding `C=C[C@H]1CN2CC[C@H]1C[C@H]2[C@H](O)c1cc(CC[C@@H](C)[C@H]2CC[C@H]3[C@@H]4CC[C@@H]5C[C@H](O)CC[C@]5(C)[C@H]4CC[C@]23C)nc2ccc(OC)cc12`, the half-inhibitory concentration (IC50) was > 20 µg/mL in data set [1], 3.53 µg/mL (≈ 5.39 µM) in data set [3], 4.24 µg/mL (≈ 6.47 µM) in data set [5] and > 20 µg/mL in data set [7].
For `C=C[C@H]1CN2CC[C@H]1C[C@H]2[C@H](O)c1cc(CC[C@@H](C)[C@H]2CC[C@H]3[C@@H]4CC[C@@H]5C[C@H](O)CC[C@]5(C)[C@H]4CC[C@]23C)nc2ccccc12`, the IC50 in data set [1] amounted to 12.8 µg/mL (≈ 20.5 µM); in data set [3] it was 2.16 µg/mL (≈ 3.46 µM); in data set [5], 1.07 µg/mL (≈ 1.71 µM); in data set [7] it was 9.28 µg/mL (≈ 14.8 µM). The figures for the selectivity ratio in data set [2], in data set [4] and in data set [6] were 8.7, 0.72 and 4.3, respectively.
As for `Cc1ccc(C(=O)Nc2ccc(S(=O)(=O)O)c3cc(S(=O)(=O)O)cc(S(=O)(=O)O)c23)cc1NC(=O)c1cccc(NC(=O)Nc2cccc(C(=O)Nc3cc(C(=O)Nc4ccc(S(=O)(=O)O)c5cc(S(=O)(=O)O)cc(S(=O)(=O)O)c45)ccc3C)c2)c1` [SURAMIN], in data set [3], the IC50 came to 0.11 µg/mL (≈ 0.0848 µM).
For `C=C[C@H]1CN2CC[C@H]1C[C@H]2[C@H](O)c1cc(CC[C@@H](C)[C@H]2CC[C@H]3[C@@H]4CC[C@@H]5C[C@H](OC(C)=O)CC[C@]5(C)[C@H]4CC[C@]23C)nc2ccccc12`, the IC50 in data set [1] stood at 12.2 µg/mL (≈ 18.3 µM); in data set [3], 1.27 µg/mL (≈ 1.9 µM); in data set [5], 1.21 µg/mL (≈ 1.81 µM); in data set [7], 5.58 µg/mL (≈ 8.37 µM). For the same compound, the selectivity ratio in data set [2] came to 4.6; in data set [4] it was 0.46; in data set [6], 4.4.
On to `C=C[C@H]1CN2CC[C@H]1C[C@H]2[C@H](O)c1cc(CC[C@@H](C)[C@H]2CC[C@H]3[C@@H]4[C@H](OC(C)=O)C[C@@H]5C[C@H](OC(C)=O)CC[C@]5(C)[C@H]4CC[C@]23C)nc2ccc(OC)cc12`, for which the half-maximal inhibitory concentration (IC50) in data set [1] was found to be 3.49 µg/mL (≈ 4.62 µM); in data set [3], 1.22 µg/mL (≈ 1.62 µM); in data set [5], 0.69 µg/mL (≈ 0.914 µM); in data set [7], 3.92 µg/mL (≈ 5.19 µM). Besides, the selectivity ratio in data set [2] was 5.6; in data set [4] it was 1.1; in data set [6], 3.2.
`C=C[C@H]1CN2CC[C@H]1C[C@@H]2[C@@H](O)c1ccnc2ccccc12` [CINCHONINE]: the IC50 is > 20 µg/mL in data set [1], > 20 µg/mL in data set [3], 0.09 µg/mL (≈ 0.306 µM) in data set [5] and > 20 µg/mL in data set [7]. In addition, the selectivity ratio in data set [2] was > 222.
With `C[C@@H]1[C@H](O)[C@@H](C)/C=C/C=C/C=C/C=C/C=C/C=C/C=C/[C@H](O[C@@H]2O[C@H](C)[C@@H](O)[C@H](N)[C@@H]2O)C[C@@H]2O[C@](O)(C[C@@H](O)C[C@@H](O)[C@H](O)CC[C@@H](O)C[C@@H](O)CC(=O)O[C@H]1C)C[C@H](O)[C@H]2C(=O)O` [AMPHOTERICIN B], the IC50 in data set [1] worked out at 0.1 µg/mL (≈ 0.108 µM).
With `C=C[C@H]1CN2CC[C@H]1C[C@@H]2[C@@H](O)c1ccnc2ccc(OC)cc12` [QUINIDINE], the IC50 was > 20 µg/mL in data set [1], 8.42 µg/mL (≈ 26 µM) in data set [3], 0.06 µg/mL (≈ 0.185 µM) in data set [5] and 11.3 µg/mL (≈ 34.8 µM) in data set [7]. The selectivity ratio in data set [2] was 179; in data set [6], 1.3.
